ChEMBL document CHEMBL3763037 (J Med Chem, 2016)

Tests used:
[1] = target: Poly [ADP-ribose] polymerase 1 (Homo sapiens, UniProt P09874); assay: Inhibition of human PARP1 using [3H]NAD as substrate after 1 min by microplate scintillation counting analysis
PARP 1, 2 and 3 = PARP 1, 2 and 3 (Homo sapiens, UniProt P09874+Q9Y6F1+Q9UGN5); assay: Inhibition of PARP in human LoVo cells assessed as inhibition of poly(ADP)-ribose polymerization for 30 mins by fluorescence assay; assay type: cell-based
[2] = Cytotoxicity against BRCA2-deficient human Capan1 cells; assay type: functional, cell-based, CAPAN-1; details: Homo sapiens, CAPAN-1
LoVo = assay: cells; details: Homo sapiens, 120 h
[3] = Half life in rat liver microsomes; assay type: ADME

Sequence of Poly [ADP-ribose] polymerase 1 (P09874 whole entry): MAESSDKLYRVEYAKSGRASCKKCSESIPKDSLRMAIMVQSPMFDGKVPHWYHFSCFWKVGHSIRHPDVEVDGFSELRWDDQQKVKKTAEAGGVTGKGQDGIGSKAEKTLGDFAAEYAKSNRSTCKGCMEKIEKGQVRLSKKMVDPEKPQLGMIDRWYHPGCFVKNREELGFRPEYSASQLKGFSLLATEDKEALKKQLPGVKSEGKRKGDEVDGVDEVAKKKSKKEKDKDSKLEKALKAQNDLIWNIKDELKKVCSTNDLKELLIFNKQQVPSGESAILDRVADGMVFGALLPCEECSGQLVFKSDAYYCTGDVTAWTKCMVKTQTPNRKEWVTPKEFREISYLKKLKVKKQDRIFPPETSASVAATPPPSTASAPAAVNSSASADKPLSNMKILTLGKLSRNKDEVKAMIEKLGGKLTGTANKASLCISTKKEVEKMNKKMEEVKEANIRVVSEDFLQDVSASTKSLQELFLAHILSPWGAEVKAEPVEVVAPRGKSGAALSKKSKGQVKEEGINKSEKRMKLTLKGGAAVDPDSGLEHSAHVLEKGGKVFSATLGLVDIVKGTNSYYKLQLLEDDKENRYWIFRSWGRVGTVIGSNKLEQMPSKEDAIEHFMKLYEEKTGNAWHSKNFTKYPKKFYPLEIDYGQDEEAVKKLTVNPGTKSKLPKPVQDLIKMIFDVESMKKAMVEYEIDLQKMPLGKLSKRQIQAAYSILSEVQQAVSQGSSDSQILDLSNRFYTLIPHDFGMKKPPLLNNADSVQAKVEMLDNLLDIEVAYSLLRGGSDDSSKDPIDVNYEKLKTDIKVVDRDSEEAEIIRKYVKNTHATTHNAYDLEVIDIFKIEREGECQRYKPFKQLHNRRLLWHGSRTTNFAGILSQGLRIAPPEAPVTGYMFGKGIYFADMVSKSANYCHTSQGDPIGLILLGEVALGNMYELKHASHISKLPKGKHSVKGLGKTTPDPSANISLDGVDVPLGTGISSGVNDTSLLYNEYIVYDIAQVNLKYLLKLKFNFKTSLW

SMILES | IC50 [1] | EC50 (PARP 1, 2 and 3) | EC50 [2] | GI50 (LoVo) | half-life [3]
O=c1[nH]nc2c3c(cccc13)NC(c1ccccn1)C2c1ccccn1 (centres undefined) | 108 nM | – | – | – | –
O=c1[nH]nc2c3c(cccc13)NC(c1ccccc1)C2c1ccccc1 (centres undefined) | 6.1 nM | 58.4 nM | 2970 nM | 324000 nM | –
NC(=O)c1cccc2cn(-c3ccc([C@@H]4CCCNC4)cc3)nc12 [NIRAPARIB] | – | – | 650 nM | – | –
Cn1ccnc1C1Nc2cccc3c(=O)[nH]nc(c23)C1c1ccccc1 (centres undefined) | 9.45 nM | – | – | > 400000 nM | –
Cn1ccnc1[C@@H]1c2n[nH]c(=O)c3cc(F)cc(c23)N[C@H]1c1ccc(F)cc1 | 22.4 nM | 164 nM | 124 nM | 104 nM | –
Cn1ccnc1C1c2n[nH]c(=O)c3cc(Cl)cc(c23)NC1c1ccccc1 (centres undefined) | 6.18 nM | 121 nM | 785 nM | 111000 nM | –
Cn1ccnc1C1c2n[nH]c(=O)c3cccc(c23)NC1c1ccc(C(F)(F)F)cc1 (centres undefined) | 5.27 nM | 27.2 nM | 1100 nM | 192000 nM | –
O=c1[nH]nc2c3c(cccc13)N[C@@H](c1ccc(CN3CCC3)cc1)[C@@H]2c1ccc(F)cc1 | 5.6 nM | 11.8 nM | 2250 nM | 3570 nM | –
Cn1ncnc1C1c2n[nH]c(=O)c3cccc(c23)NC1c1ccccc1 (centres undefined) | 2.4 nM | 149 nM | 170 nM | > 400000 nM | 6.9 h
CC(=O)Nc1ccc(C2Nc3cc(F)cc4c(=O)[nH]nc(c34)C2c2ncnn2C)cc1 (centres undefined) | 2.08 nM | – | 146 nM | – | > 2 h
CN(C)Cc1ccc(C2Nc3cc(F)cc4c(=O)[nH]nc(c34)C2c2ccccc2)cc1 (centres undefined) | 3.29 nM | 8.48 nM | 146 nM | 46000 nM | 0.0833 h
Cn1ncnc1C1c2n[nH]c(=O)c3cc(F)cc(c23)NC1c1cncnc1 (centres undefined) | 7.62 nM | – | – | – | –
Cn1nccc1C1c2n[nH]c(=O)c3cc(F)cc(c23)NC1c1ccc(F)cc1 (centres undefined) | 1.84 nM | 9.33 nM | 956 nM | > 400000 nM | –
Cn1ncnc1C1c2n[nH]c(=O)c3cc(F)cc(c23)NC1c1ccc(F)cc1 (centres undefined) | – | – | 8 nM | 19000 nM | 5.98 h
O=c1[nH]nc2c3c(cccc13)NC(c1ccc(F)cc1)C2c1nccs1 (centres undefined) | 7.35 nM | 24.4 nM | – | 106000 nM | –
O=c1[nH]nc2c3c(cccc13)NC(c1cccnc1)C2c1cccnc1 (centres undefined) | 17.7 nM | – | – | – | –
Cn1nccc1C1Nc2cc(F)cc3c(=O)[nH]nc(c23)C1c1ncnn1C (centres undefined) | 2.88 nM | – | 1920 nM | – | –
O=c1[nH]nc2c3c(cccc13)NC(c1ccc(CN3CCC3)cc1)C2c1ccccc1 (centres undefined) | 3.63 nM | 9.7 nM | 434 nM | 89000 nM | 0.133 h
Cn1ccnc1[C@@H]1c2n[nH]c(=O)c3cccc(c23)N[C@H]1c1ccc(F)cc1 | 136 nM | 285 nM | 6310 nM | > 10000 nM | –
O=c1[nH]nc2c3c(cccc13)NC(c1ccc(CN3CCC3)cc1)C2c1ccc(F)cc1 (centres undefined) | 3.09 nM | 3.81 nM | 276 nM | 95000 nM | 1.48 h
Cn1ccnc1C1c2n[nH]c(=O)c3cc(F)cc(c23)NC1c1ccc(F)cc1 (centres undefined) | 1.87 nM | 17 nM | 56 nM | 35700 nM | –
Cn1ccnc1C1Nc2cccc3c(=O)[nH]nc(c23)C1c1nccn1C (centres undefined) | 24.5 nM | – | – | – | –

SMILES | IC50 [1] | EC50 (PARP 1, 2 and 3) | EC50 [2] | GI50 (LoVo) | half-life [3]
Cn1ccnc1C1c2n[nH]c(=O)c3cc(F)cc(c23)NC1c1ccccc1 (centres undefined) | 2.14 nM | 18.1 nM | 108 nM | 36300 nM | 1.72 h
Cn1ccnc1C1c2n[nH]c(=O)c3cccc(c23)NC1c1ccc(F)cc1 (centres undefined) | 2.08 nM | 19.7 nM | 418 nM | 75500 nM | > 2 h
CN(C)Cc1cccc(C2c3n[nH]c(=O)c4cccc(c34)NC2c2ccccc2)c1 (centres undefined) | 3.65 nM | – | – | 204000 nM | 0.183 h
Cn1ncnc1C1c2n[nH]c(=O)c3cc(F)cc(c23)NC1c1ccc(C#N)cc1 (centres undefined) | 3.9 nM | – | 88 nM | – | –
CN(C)Cc1ccc(C2Nc3cccc4c(=O)[nH]nc(c34)C2c2ccc(CN(C)C)cc2)cc1 (centres undefined) | 3.89 nM | 18.6 nM | 979 nM | 63000 nM | > 2 h
Cn1ncnc1C1c2n[nH]c(=O)c3cc(F)cc(c23)NC1c1ccccc1 (centres undefined) | 2.6 nM | – | 9 nM | 24000 nM | 7.87 h
O=c1[nH]nc2c3c(cccc13)NC(c1cccnc1)C2C1CCCNC1 (centres undefined) | 105 nM | – | – | – | –
Cn1ncnc1[C@@H]1c2n[nH]c(=O)c3cc(F)cc(c23)N[C@H]1c1ccc(F)cc1 | – | – | 1140 nM | 1810 nM | –
CC(C)C1c2n[nH]c(=O)c3cccc(c23)NC1c1ccccc1 (centres undefined) | 4140 nM | – | – | – | –
Cn1ncnc1[C@@H]1c2n[nH]c(=O)c3cccc(c23)N[C@H]1c1ccc(F)cc1 | 68.9 nM | 250 nM | 1880 nM | 3260 nM | –
CN(C)Cc1ccc(C2c3n[nH]c(=O)c4cccc(c34)NC2c2ccccc2)cc1 (centres undefined) | 5.85 nM | – | – | 112000 nM | 0.1 h
O=c1[nH]nc2c3c(cccc13)NC(c1ccncc1)C2c1ccncc1 (centres undefined) | 22.4 nM | – | – | > 400000 nM | –
CC(C)c1ccc(C2c3n[nH]c(=O)c4cccc(c34)NC2c2ccc(CN(C)C)cc2)cc1 (centres undefined) | 9.59 nM | 15.2 nM | – | 123000 nM | –
CN(C)Cc1ccc(C2Nc3cccc4c(=O)[nH]nc(c34)C2c2ccc(F)cc2)cc1 (centres undefined) | 2.48 nM | 18.5 nM | 1730 nM | 76000 nM | 0.733 h
CN(C)Cc1cccc(C2Nc3cccc4c(=O)[nH]nc(c34)C2c2ccccc2)c1 (centres undefined) | 2.63 nM | – | – | 128000 nM | –
Cc1ccc(C2c3n[nH]c(=O)c4cccc(c34)NC2c2ccc(CN(C)C)cc2)cc1 (centres undefined) | 1.95 nM | 10.8 nM | 514 nM | 123000 nM | 0.583 h
Cn1cnnc1C1c2n[nH]c(=O)c3cccc(c23)NC1c1ccccc1 (centres undefined) | 2.76 nM | – | 4340 nM | > 400000 nM | –
CN(C)Cc1ccc(C2Nc3cccc4c(=O)[nH]nc(c34)C2c2ccc(C(F)(F)F)cc2)cc1 (centres undefined) | 6.29 nM | 6.7 nM | 818 nM | 94000 nM | –
Cn1ncnc1C1c2n[nH]c(=O)c3cccc(c23)NC1c1ccc(F)cc1 (centres undefined) | 2.29 nM | 6.94 nM | 71 nM | 44000 nM | > 2 h
O=c1[nH]nc2c3c(cccc13)NC(c1ccc(CN3CCCC3)cc1)C2c1ccccc1 (centres undefined) | 4.02 nM | 9.47 nM | 298 nM | 90000 nM | 0.133 h
CN(C)Cc1ccc(C2Nc3cccc4c(=O)[nH]nc(c34)C2c2ccccc2)cc1 (centres undefined) | 2.36 nM | 6 nM | 387 nM | 59000 nM | 0.2 h
O=c1[nH]nc2c3c(cccc13)NC(c1ccc(CN3CCCC3)cc1)C2c1ccc(F)cc1 (centres undefined) | 2.02 nM | 23 nM | 454 nM | 134000 nM | 1.48 h
